According to patent US9920061B2, “Imidazo[1,5-A]pyrimidinyl carboxamide compounds and their use in the treatment of medical disorders” (Lysosomal Therapeutics Inc., priority 2016, dated 2018):
≈ marks a conversion by molar mass, not a printed value.

What was measured:
[1] = target: T1, glucocerebrosidase (Gcase) (Homo sapiens, UniProt P04062); experiment: Glucocerebrosidase (Gcase) activation assay, 4-methylumbelliferyl-beta-D-glucopyranoside substrate, with saposin C; assay type: biochemical; conditions: for activation at 0.1 µM: 0.1 μM test compound, read-out: Percent Gcase Activation 0.1 μM Test Compound; for activation at 1 µM: 1 μM test compound, read-out: Percent Gcase Activation 1 μM Test Compound
T1 sequence (P04062 40-536): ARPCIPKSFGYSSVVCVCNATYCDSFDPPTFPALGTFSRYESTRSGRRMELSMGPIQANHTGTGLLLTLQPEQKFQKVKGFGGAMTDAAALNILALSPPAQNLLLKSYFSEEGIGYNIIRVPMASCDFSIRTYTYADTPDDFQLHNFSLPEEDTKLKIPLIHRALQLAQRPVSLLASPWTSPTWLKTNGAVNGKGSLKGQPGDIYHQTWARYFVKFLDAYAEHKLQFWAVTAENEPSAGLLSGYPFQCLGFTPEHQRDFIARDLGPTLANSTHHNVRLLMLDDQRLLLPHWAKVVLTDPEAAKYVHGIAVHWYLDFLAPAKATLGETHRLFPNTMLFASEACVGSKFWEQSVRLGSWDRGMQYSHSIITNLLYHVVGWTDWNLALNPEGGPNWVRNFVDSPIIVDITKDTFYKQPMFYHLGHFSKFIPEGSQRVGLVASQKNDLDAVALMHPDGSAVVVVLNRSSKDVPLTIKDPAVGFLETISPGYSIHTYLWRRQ
Protocol: The ability of exemplary compounds to activate glucocerebrosidase (Gcase) was measured.
A 484 μL aliquot of a 1.0 mg/mL solution of phosphatidylserine (PS) (Sigma P7769) in chloroform was evaporated under a stream of nitrogen for 1 hour. The lipid film was dissolved over 4 minutes of vigorous vortexing in 40 mL of 176 mM K2HPO4/50 mM citric acid (pH 4.7) containing 7.5 μL of triton X-100, resulting in a mixed micellar preparation with a composition of 0.32 mM triton and 0.37 mol % PS. 4-Methylumbelliferyl-beta-D-glucopyranoside (ACROS-337025000) was dissolved in the micellar solution to a final concentration of 2 mM for use as the reaction substrate.
Test compounds were diluted to the desired concentrations with dimethylsulfoxide (DMSO) from 10 mM stocks, and 0.41 μL of the DMSO compound mixture was added to 100 μL of micellar solution containing 10 nM GCase and 100 nM saposin C (Enzo ALX-201-262-C050). Pre-incubation was allowed to occur for 30 minutes at room temperature, after which the reaction was initiated by combining 25 μL of substrate solution with 25 μL of compound/GCase/saposin mixture. The reaction proceeded for 15 minutes at room temperature and was stopped by adding 150 μL of 1M glycine, pH 12.5. The endpoint of the reaction was monitored by measuring fluorescence intensity (excitation: 365 nm; emission: 440 nm) on a SpectraMax i3 instrument (Molecular Devices). Test compounds were screened at 1.0 and 0.1 μM final concentration, and subsequent 8-point dose response curves were obtained using 3-fold dilutions from a maximum final concentration of […].

[2] = Compound solubility in water; assay type: physicochemical

Structure (SMILES)	activation at 0.1 µM [1] [%]	activation at 1 µM [1] [%]	solubility [2] [µg/mL]
COCc1cc(-c2ccc(F)cc2)n2cnc(C(=O)N[C@@H](C)C3CC3)c2n1 [III-35]	< 10	< 30	43.5 (≈ 118 µM)
COCc1cc(-c2ccc(F)cc2)nc2c(C(=O)N[C@@H](C)C3CC3)ncn12 [III-36]	10 to 20	> 60	22 (≈ 59.7 µM)
C[C@H](NC(=O)c1ncn2cc(-c3ccc(F)cc3)cnc12)C1CC1 [III-37]	< 10	< 30	2.2 (≈ 6.78 µM)
Cc1cc(-c2cccnc2)nc2c(C(=O)NC(C)C3CC3)ncn12 (stereo not drawn) [III-43]	< 10	< 30	31.1 (≈ 96.8 µM)
Cc1cc(-c2ccccn2)nc2c(C(=O)NC(C)C3CC3)ncn12 (stereo not drawn) [III-44]	< 10	< 30	26 (≈ 80.9 µM)
Cc1cc(-c2cccnc2)nc2c(C(=O)N[C@@H](C)c3ccccc3F)ncn12 [III-45]	< 10	30 to 60	5 (≈ 13.3 µM)
Cc1cc(C)n2cnc(C(=O)NC(C)C(C)C3CC3)c2n1 (stereo not drawn) [III-47]	< 10	30 to 60	24.2 (≈ 84.5 µM)
Cc1cc(-c2cccnc2)nc2c(C(=O)NC(c3ccc(F)cc3)C(F)(F)F)ncn12 (stereo not drawn) [III-48]	> 20	> 60	7.1 (≈ 16.5 µM)
Cc1cc(-c2ccccn2)nc2c(C(=O)NC(c3ccc(F)cc3)C(F)(F)F)ncn12 (stereo not drawn) [III-49]	> 20	> 60	6.7 (≈ 15.6 µM)
Cc1cc(-c2cccc(F)c2)nc2c(C(=O)NC(C)C3CC3)ncn12 (stereo not drawn) [III-50]	> 20	> 60	33.3 (≈ 98.4 µM)
Cc1cc(-c2ccccc2F)nc2c(C(=O)NC(C)C3CC3)ncn12 (stereo not drawn) [III-51]	< 10	> 60	22.7 (≈ 67.1 µM)
COc1ccccc1-c1cc(C)n2cnc(C(=O)NC(C)C3CC3)c2n1 (stereo not drawn) [III-52]	> 20	> 60	11.6 (≈ 33.1 µM)
COc1cccc(-c2cc(C)n3cnc(C(=O)NC(C)C4CC4)c3n2)c1 (stereo not drawn) [III-55]	> 20	> 60	7.8 (≈ 22.3 µM)
CCCCO[C@H]1C[C@H]2CC[C@@H](C1)[C@H]2NC(=O)c1ncn2c(C)cc(-c3cccnc3)nc12 [III-63]	> 20	> 60	3.5 (≈ 8.07 µM)
Cc1cc(-c2cccnc2)nc2c(C(=O)N[C@H]3CC[C@H](OC(C)(C)C)CC3)ncn12 [III-64]	< 10	< 30	32.2 (≈ 79 µM)
CCCO[C@H]1CC[C@H](NC(=O)c2ncn3c(C)cc(-c4cccnc4)nc23)CC1 [III-65]	< 10	< 30	15.4 (≈ 39.1 µM)
Cc1cc(-c2cccnc2)nc2c(C(=O)N[C@H]3CC[C@H](OCC(C)C)CC3)ncn12 [III-66]	< 10	30 to 60	16 (≈ 39.3 µM)
Cc1cc(-c2cccnc2)nc2c(C(=O)NC(C3CC3)C(F)(F)F)ncn12 (stereo not drawn) [III-71]	< 10	> 60	22.5 (≈ 59.9 µM)
Cc1cc(-c2ccccn2)nc2c(C(=O)NC(C3CC3)C(F)(F)F)ncn12 (stereo not drawn) [III-72]	10 to 20	> 60	4.7 (≈ 12.5 µM)
Cc1cc(-c2ccc(Cl)nc2)nc2c(C(=O)N[C@@H](C)C3CC3)ncn12 [III-75]	< 10	30 to 60	4.9 (≈ 13.8 µM)
Cc1cc(-c2ccc(F)cc2)nc2c(C(=O)N[C@@H](C)C3CCC3)ncn12 [III-79]	10 to 20	> 60	3 (≈ 8.51 µM)
Cc1cc(-c2ccc(F)cc2)nc2c(C(=O)NC(C)C3CCCO3)ncn12 (stereo not drawn) [III-80]	< 10	< 30	14.5 (≈ 39.4 µM)
Cc1cc(-c2ccc(F)c(F)c2)nc2c(C(=O)NC(C)C3CC3)ncn12 (stereo not drawn) [III-85]	> 20	> 60	1.2 (≈ 3.37 µM)
Cc1cc(-c2ccccc2)nc2c(C(=O)NC(C)C3CC3)ncn12 (stereo not drawn) [III-86]	> 20	> 60	13.1 (≈ 40.9 µM)
Cc1cc(-c2ccc(F)cc2)nc2c(C(=O)NC(C3CC3)C3CC3)ncn12 [III-87]	> 20	> 60	2.2 (≈ 6.04 µM)
Cc1cc(-c2ccc(F)cc2)nc2c(C(=O)NC(C)(C)C)ncn12 [III-88]	< 10	> 60	2 (≈ 6.13 µM)
CCNc1cc(C)n2cnc(C(=O)NC(c3ccc(F)cc3)C(F)(F)F)c2n1 (stereo not drawn) [III-90]	> 20	> 60	2.2 (≈ 5.56 µM)

The remaining lines, values ahead:

activation at 0.1 µM [1] [%]	activation at 1 µM [1] [%]	solubility [2] [µg/mL]	Structure (SMILES)
< 10	30 to 60	27.1 (≈ 80.8 µM)	Cc1cc(-c2cccnc2)nc2c(C(=O)NC(C)(C)C3CC3)ncn12 [III-41]
< 10	> 60	4 (≈ 11.9 µM)	Cc1cc(-c2ccccn2)nc2c(C(=O)NC(C)(C)C3CC3)ncn12 [III-42]
< 10	> 60	12 (≈ 41.9 µM)	Cc1cc(C)n2cnc(C(=O)NC(C)(C)CC3CC3)c2n1 [III-46]
< 10	30 to 60	16.2 (≈ 48.2 µM)	Cc1cc(-c2cnccn2)nc2c(C(=O)NC(C)(C)C3CC3)ncn12 [III-56]
< 10	< 30	23.4 (≈ 69.6 µM)	Cc1cc(-c2cncnc2)nc2c(C(=O)NC(C)(C)C3CC3)ncn12 [III-57]
< 10	> 60	44.4 (≈ 130 µM)	Cc1cc(-c2cncs2)nc2c(C(=O)NC(C)(C)C3CC3)ncn12 [III-58]
10 to 20	> 60	2.1 (≈ 6.15 µM)	Cc1cc(-c2cnsc2)nc2c(C(=O)NC(C)(C)C3CC3)ncn12 [III-59]
10 to 20	> 60	4 (≈ 11.7 µM)	Cc1cc(-c2ccns2)nc2c(C(=O)NC(C)(C)C3CC3)ncn12 [III-60]
10 to 20	> 60	5.5 (≈ 16.1 µM)	Cc1cc(-c2nccs2)nc2c(C(=O)NC(C)(C)C3CC3)ncn12 [III-61]
< 10	> 60	6.3 (≈ 18.5 µM)	Cc1cc(-c2cscn2)nc2c(C(=O)NC(C)(C)C3CC3)ncn12 [III-62]
< 10	< 30	23.4 (≈ 72.1 µM)	Cc1cc(-n2ccnc2)nc2c(C(=O)NC(C)(C)C3CC3)ncn12 [III-67]
< 10	< 30	27.3 (≈ 83.9 µM)	Cc1cc(-n2cncn2)nc2c(C(=O)NC(C)(C)C3CC3)ncn12 [III-68]
< 10	< 30	8.5 (≈ 25.1 µM)	Cc1cc(-c2ccnn2C)nc2c(C(=O)NC(C)(C)C3CC3)ncn12 [III-69]
< 10	30 to 60	10.5 (≈ 32.4 µM)	Cc1cc(-n2cccn2)nc2c(C(=O)NC(C)(C)C3CC3)ncn12 [III-70]
< 10	< 30	19.3 (≈ 47.4 µM)	CO[C@H]1CC[C@H](C(C)(C)NC(=O)c2ncn3c(C)cc(-c4cccnc4)nc23)CC1 [III-73]
< 10	30 to 60	19.3 (≈ 47.4 µM)	CO[C@H]1CC[C@@H](C(C)(C)NC(=O)c2ncn3c(C)cc(-c4cccnc4)nc23)CC1 [III-74]
10 to 20	> 60	1.1 (≈ 2.97 µM)	Cc1cc(-c2ccc(Cl)nc2)nc2c(C(=O)NC(C)(C)C3CC3)ncn12 [III-76]
< 10	< 30	23.2 (≈ 67.7 µM)	Cc1cc(C2CCCOC2)nc2c(C(=O)NC(C)(C)C3CC3)ncn12 (stereo not drawn) [III-78]
< 10	< 30	22.8 (≈ 67.2 µM)	Cc1cc(-c2cn(C)nn2)nc2c(C(=O)NC(C)(C)C3CC3)ncn12 [III-82]
< 10	< 30	24.5 (≈ 79.2 µM)	Cc1cc(-c2cccnc2)nc2c(C(=O)NC(C)(C)C)ncn12 [III-89]
